Patent US11345712B2, “Protein-targeting compounds and pharmaceutical compositions thereof, and their therapeutic applications” (BioTheryX, Inc., priority 2019, dated 2022)

system: MOLM-13 cells; assay: MOLM-13 cell viability assay (CellTiter-Glo); assay type: cell-based; settings: Homo sapiens, MOLM-13, 72 h, 3 days, concentration of 1 μM, read-out: Antiproliferative Activity (inhibition, MOLM-13 cell viability)
Experimental: MOLM-13 cells were cultured in RPMI 1640 media supplemented with 10% fetal bovine serum, streptomycin, and penicillin. The cells were plated in white walled 96-well plates at 2,500 cells/well. The cells were incubated in DMSO (control) or an indicated compound for 3 days at 37° C. and 5% CO2. Following the incubation period, 100 μL of CELLTITER-GLO® (CTG) reagent was added to each well. Following a 10 minutes incubation with shaking, luminescence was measured using an ENVISION® Multimode plate reader.

Row | Compound | cytotoxicity at 1 µM
1 | CC(c1ccc(C(=O)C(=O)NCc2scc3c2CN(C2CCC(=O)NC2=O)C3=O)cc1)C(F)(F)F (stereo not drawn) [Compound I-36, N-((5-(2,6-dioxopiperidin-3-yl)-4-oxo-5,6-dihydro-4H-thieno[3,4-c]pyrrol-1-yl)methyl)-2-oxo-2-(4-(1,1,1-trifluoropropan-2-yl)phenyl)acetamide] | 25 to 50%
2 | O=C1CCC(N2Cc3c(CCNC(=O)C(=O)c4ccc(C5(C(F)(F)F)CC5)cc4)cccc3C2=O)C(=O)N1 (stereo not drawn) [Compound I-65, N-(2-(2-(2,6-dioxopiperidin-3-yl)-1-oxoisoindolin-4-yl)ethyl)-2-oxo-2-(4-(1-(trifluoromethyl)cyclopropyl)phenyl)acetamide] | < 25%
3 | COc1ccc(C(=O)C(=O)NCc2ccc3c(c2)CN(C2CCC(=O)NC2=O)C3=O)cc1 (stereo not drawn) [Compound I-89, N-((2-(2,6-dioxopiperidin-3-yl)-1-oxoisoindolin-5-yl)methyl)-2-(4-methoxyphenyl)-2-oxoacetamide] | > 80%
4 | Cc1ccc(C(F)(F)C(=O)NCc2cc3c(s2)C(=O)N(C2CCC(=O)NC2=O)C3)cc1Cl (stereo not drawn) [II-38, 2-(3-chloro-4-methylphenyl)-N-((5-(2,6-dioxopiperidin-3-yl)-6-oxo-5,6-dihydro-4H-thieno[2,3-c]pyrrol-2-yl)methyl)-2,2-difluoroacetamide] | < 25%
5 | Cc1ccc(CCC(C)(C)C(=O)NCc2scc3c2CN([C@H]2CCC(=O)NC2=O)C3=O)cc1Cl [II-104, (S)-4-(3-chloro-4-methylphenyl)-N-((5-(2,6-dioxopiperidin-3-yl)-4-oxo-5,6-dihydro-4H-thieno[3,4-c]pyrrol-1-yl)methyl)-2,2-dimethylbutanamide] | < 25%
6 | CN(C)Cc1cccc(NC(=O)NCc2cc3c(s2)C(=O)N(C2CCC(=O)NC2=O)C3)c1 (stereo not drawn) [II-53, 1-(3-((dimethylamino)methyl)phenyl)-3-((5-(2,6-dioxopiperidin-3-yl)-6-oxo-5,6-dihydro-4H-thieno[2,3-c]pyrrol-2-yl)methyl)urea] | < 25%
7 | CC(C)(C)c1ccc(CS(=O)(=O)NCc2scc3c2CN(C2CCC(=O)NC2=O)C3=O)cc1 (stereo not drawn) [II-128, 1-(4-(tert-butyl)phenyl)-N-((5-(2,6-dioxopiperidin-3-yl)-4-oxo-5,6-dihydro-4H-thieno[3,4-c]pyrrol-1-yl)methyl)methanesulfonamide] | > 80%
8 | CC(C)(C)c1ccc(C(F)(F)C(=O)NCc2scc3c2CN(C2CCC(=O)NC2=O)C3=O)cc1 (stereo not drawn) [II-129, 2-(4-(tert-butyl)phenyl)-N-((5-(2,6-dioxopiperidin-3-yl)-4-oxo-5,6-dihydro-4H-thieno[3,4-c]pyrrol-1-yl)methyl)-2,2-difluoroacetamide] | < 25%
9 | CN(C)CCOc1ccc(CC(=O)NCc2scc3c2CN(C2CCC(=O)NC2=O)C3=O)cc1 (stereo not drawn) [II-80, 2-(4-(2-(dimethylamino)ethoxy)phenyl)-N-((5-(2,6-dioxopiperidin-3-yl)-4-oxo-5,6-dihydro-4H-thieno[3,4-c]pyrrol-1-yl)methyl)acetamide] | < 25%
10 | CC(C)(C)C1CCN(C(=O)C(=O)NCc2ccc3c(c2)CN(C2CCC(=O)NC2=O)C3=O)CC1 (stereo not drawn) [Compound I-62, 2-(4-(tert-butyl)piperidin-1-yl)-N-((2-(2,6-dioxopiperidin-3-yl)-1-oxoisoindolin-5-yl)methyl)-2-oxoacetamide] | > 80%
11 | CCCOc1ccc(C(N)C(=O)NCc2scc3c2CN(C2CCC(=O)NC2=O)C3=O)cc1 (stereo not drawn) [II-112, 2-amino-N-((5-(2,6-dioxopiperidin-3-yl)-4-oxo-5,6-dihydro-4H-thieno[3,4-c]pyrrol-1-yl)methyl)-2-(4-propoxyphenyl)acetamide] | < 25%
12 | CC1CCC(CC(=O)NCc2scc3c2CN(C2CCC(=O)NC2=O)C3=O)CC1 (stereo not drawn) [II-75, N-((5-(2,6-dioxopiperidin-3-yl)-4-oxo-5,6-dihydro-4H-thieno[3,4-c]pyrrol-1-yl)methyl)-2-(4-methylcyclohexyl)acetamide] | < 25%
13 | Cc1cc(C(=O)C(=O)NCc2scc3c2CN(C2CCC(=O)NC2=O)C3=O)ccc1C(C)(C)C (stereo not drawn) [Compound I-27, 2-(3-methyl-4-(tert-butyl)phenyl)-N-((5-(2,6-dioxopiperidin-3-yl)-4-oxo-5,6-dihydro-4H-thieno[3,4-c]pyrrol-1-yl)methyl)-2-oxoacetamide] | > 80%
14 | CC(C)C(C(=O)NCc1scc2c1CN(C1CCC(=O)NC1=O)C2=O)c1ccc(C(C)(C)C)cc1 (stereo not drawn) [II-94, 2-(4-(tert-butyl)phenyl)-N-((5-(2,6-dioxopiperidin-3-yl)-4-oxo-5,6-dihydro-4H-thieno[3,4-c]pyrrol-1-yl)methyl)-3-methylbutanamide] | < 25%
15 | CN(C)Cc1ccc(C(=O)C(=O)NCc2scc3c2CN(C2CCC(=O)NC2=O)C3=O)cc1 (stereo not drawn) [Compound I-25, 2-(4-((dimethylamino)methyl)phenyl)-N-((5-(2,6-dioxopiperidin-3-yl)-4-oxo-5,6-dihydro-4H-thieno[3,4-c]pyrrol-1-yl)methyl)-2-oxoacetamide] | < 25%
16 | Cc1ccc(N(C)C(=O)NCc2scc3c2CN(C2CCC(=O)NC2=O)C3=O)cc1Cl (stereo not drawn) [II-22, 1-(3-chloro-4-methylphenyl)-3-((5-(2,6-dioxopiperidin-3-yl)-4-oxo-5,6-dihydro-4H-thieno[3,4-c]pyrrol-1-yl)methyl)-1-methylurea] | 50 to 80%
17 | CC(C)(C)c1ccc(S(=O)(=O)NCc2scc3c2CN(C2CCC(=O)NC2=O)C3=O)cc1 (stereo not drawn) [II-124, 4-(tert-butyl)-N-((5-(2,6-dioxopiperidin-3-yl)-4-oxo-5,6-dihydro-4H-thieno[3,4-c]pyrrol-1-yl)methyl)benzenesulfonamide] | < 25%
18 | CC(C)(C)c1ccc(C(=O)C(=O)NCCc2scc3c2CN(C2CCC(=O)NC2=O)C3=O)cc1 (stereo not drawn) [Compound I-41, 2-(4-(tert-butyl)phenyl)-N-(2-(5-(2,6-dioxopiperidin-3-yl)-4-oxo-5,6-dihydro-4H-thieno[3,4-c]pyrrol-1-yl)ethyl)-2-oxoacetamide] | > 80%
19 | CN(C)c1ccc(CCCC(=O)NCc2scc3c2CN(C2CCC(=O)NC2=O)C3=O)cc1 (stereo not drawn) [II-85, 4-(4-(dimethylamino)phenyl)-N-((5-(2,6-dioxopiperidin-3-yl)-4-oxo-5,6-dihydro-4H-thieno[3,4-c]pyrrol-1-yl)methyl)butanamide] | < 25%
20 | Cc1ccc(C(F)(F)C(=O)NCc2scc3c2CN(C2CCC(=O)NC2=O)C3=O)cc1Cl (stereo not drawn) [II-28, 2-(3-chloro-4-methylphenyl)-N-((5-(2,6-dioxopiperidin-3-yl)-4-oxo-5,6-dihydro-4H-thieno[3,4-c]pyrrol-1-yl)methyl)-2,2-difluoroacetamide] | < 25%
21 | COc1cc(OC)c(C(=O)C(=O)NCc2cccc3c2CN(C2CCC(=O)NC2=O)C3=O)c(OC)c1 (stereo not drawn) [Compound I-79, 2-(2,4,6-trimethoxyphenyl)-N-((2-(2,6-dioxopiperidin-3-yl)-1-oxoisoindolin-4-yl)methyl)-2-oxoacetamide] | < 25%
22 | CCC(C(=O)NCc1scc2c1CN(C1CCC(=O)NC1=O)C2=O)c1ccc(C)c(Cl)c1 (stereo not drawn) [II-87, 2-(3-chloro-4-methylphenyl)-N-((5-(2,6-dioxopiperidin-3-yl)-4-oxo-5,6-dihydro-4H-thieno[3,4-c]pyrrol-1-yl)methyl)butanamide] | < 25%
23 | O=C(Cc1ccc(F)cc1)NCc1scc2c1CN(C1CCC(=O)NC1=O)C2=O (stereo not drawn) [II-25, N-((5-(2,6-dioxopiperidin-3-yl)-4-oxo-5,6-dihydro-4H-thieno[3,4-c]pyrrol-1-yl)methyl)-2-(4-fluorophenyl)acetamide] | < 25%
24 | Cc1ccc(NC(=O)NCc2cc3c(s2)C(=O)N(C2CCC(=O)NC2=O)C3)cc1N1CCCC1 (stereo not drawn) [II-98, 1-((5-(2,6-dioxopiperidin-3-yl)-6-oxo-5,6-dihydro-4H-thieno[2,3-c]pyrrol-2-yl)methyl)-3-(4-methyl-3-(pyrrolidin-1-yl)phenyl)urea] | > 80%
25 | Cc1cc(C)c(C(=O)C(=O)NCc2cccc3c2CN(C2CCC(=O)NC2=O)C3=O)c(C)c1 (stereo not drawn) [Compound I-80, 2-(2,4,6-trimethylphenyl)-N-((2-(2,6-dioxopiperidin-3-yl)-1-oxoisoindolin-4-yl)methyl)-2-oxoacetamide] | < 25%
26 | CN(C)c1cc(NC(=O)NCc2cc3c(s2)C(=O)N(C2CCC(=O)NC2=O)C3)ccc1F (stereo not drawn) [II-45, 1-(3-(dimethylamino)-4-fluorophenyl)-3-((5-(2,6-dioxopiperidin-3-yl)-6-oxo-5,6-dihydro-4H-thieno[2,3-c]pyrrol-2-yl)methyl)urea] | > 80%
27 | O=C1CCC(N2Cc3c(csc3CNC(=O)C(=O)c3ccc(CN4CCOCC4)cc3)C2=O)C(=O)N1 (stereo not drawn) [Compound I-26, 2-(4-(morpholinomethyl)phenyl)-N-((5-(2,6-dioxopiperidin-3-yl)-4-oxo-5,6-dihydro-4H-thieno[3,4-c]pyrrol-1-yl)methyl)-2-oxoacetamide] | < 25%
28 | CCN(C)c1cc(NC(=O)NCc2cc3c(s2)C(=O)N(C2CCC(=O)NC2=O)C3)ccc1C (stereo not drawn) [II-100, 1-((5-(2,6-dioxopiperidin-3-yl)-6-oxo-5,6-dihydro-4H-thieno[2,3-c]pyrrol-2-yl)methyl)-3-(3-(ethyl(methyl)amino)-4-methylphenyl)urea] | > 80%
29 | CN(C)CCOc1cccc(CC(=O)NCc2scc3c2CN(C2CCC(=O)NC2=O)C3=O)c1 (stereo not drawn) [II-77, 2-(3-(2-(dimethylamino)ethoxy)phenyl)-N-((5-(2,6-dioxopiperidin-3-yl)-4-oxo-5,6-dihydro-4H-thieno[3,4-c]pyrrol-1-yl)methyl)acetamide] | < 25%
30 | CC(C)(C)c1cccc(C(=O)C(=O)NCc2cccc3c2CN(C2CCC(=O)NC2=O)C3=O)c1 (stereo not drawn) [Compound I-46, 2-(3-(tert-butyl)phenyl)-N-((2-(2,6-dioxopiperidin-3-yl)-1-oxoisoindolin-4-yl)methyl)-2-oxoacetamide] | 25 to 50%
